For one experiment, the target named is TEAD2 (Homo sapiens, UniProt Q15562). Briefly: TEAD lipid assay (Lipid FP, Bodipy-C16 probe displacement). Particulars: fluorescence polarization, His-tagged TEAD, 60 minutes incubation. In kind it is binding. How it is done:
(§1) A TEAD lipid assay was done according to the following method. His-tagged TEAD proteins were pre-incubated with a Bodipy-C16 FP probe (Life Technologies Cat #D3821) for 30 minutes at room temperature to pre-form TEAD-probe complex. […] Duplicate 10 point dose response curves were generated for each test compound. The potency of compounds as TEAD lipid pocket binders was determined by IC50 value generated using a non-linear 4 parameter curve fit.

The target in another experiment is TEAD3 (Homo sapiens, UniProt Q99594). Described as above. The format is binding. Conditions: fluorescence polarization, His-tagged TEAD, 60 minutes incubation. As to the method: as §1
For orientation: Fluorescence polarisation rises when a labelled molecule tumbles more slowly, as on binding a larger partner.

SMILES strings stand for the structures.

Chain of TEAD2 (Q15562 whole entry, species assumed): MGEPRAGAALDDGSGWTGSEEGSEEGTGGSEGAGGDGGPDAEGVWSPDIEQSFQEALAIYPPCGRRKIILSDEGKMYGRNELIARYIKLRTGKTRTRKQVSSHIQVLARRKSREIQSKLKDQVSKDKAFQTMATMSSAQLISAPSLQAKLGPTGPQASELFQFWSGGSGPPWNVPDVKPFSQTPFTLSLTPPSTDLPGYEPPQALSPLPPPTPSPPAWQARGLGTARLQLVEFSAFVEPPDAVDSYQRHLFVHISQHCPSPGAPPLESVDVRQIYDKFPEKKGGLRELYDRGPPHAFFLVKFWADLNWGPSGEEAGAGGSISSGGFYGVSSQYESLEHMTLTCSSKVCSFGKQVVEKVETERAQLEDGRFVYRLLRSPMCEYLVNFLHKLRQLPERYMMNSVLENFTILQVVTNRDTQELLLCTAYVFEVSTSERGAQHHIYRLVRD
Chain of TEAD3 (Q99594 whole entry, species assumed): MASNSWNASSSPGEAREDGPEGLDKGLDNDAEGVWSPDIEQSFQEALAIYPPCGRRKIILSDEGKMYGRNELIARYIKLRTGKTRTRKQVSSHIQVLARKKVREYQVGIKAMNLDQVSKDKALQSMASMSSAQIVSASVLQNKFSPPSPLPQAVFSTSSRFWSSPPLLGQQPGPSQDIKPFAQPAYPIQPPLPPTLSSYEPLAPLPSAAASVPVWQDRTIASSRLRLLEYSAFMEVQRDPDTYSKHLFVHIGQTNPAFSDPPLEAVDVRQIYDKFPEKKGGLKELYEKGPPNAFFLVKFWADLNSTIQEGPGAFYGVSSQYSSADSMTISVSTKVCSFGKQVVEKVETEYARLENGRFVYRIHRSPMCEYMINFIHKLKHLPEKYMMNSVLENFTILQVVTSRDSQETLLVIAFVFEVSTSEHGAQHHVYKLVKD

For orientation: IC50 means the concentration needed to halve the response being measured. A lower IC50 goes with greater potency. On to `CC[C@H](CO)NC(=O)c1cc(/C=C/C2CC3(CC3)C2)c(OC)nn1` [Compound 47, (E)-N-(1-hydroxybutan-2-yl)-6-methoxy-5-(2-(spiro[2.3]hexan-5-yl)vinyl)pyridazine-3-carboxamide], for which the 50% inhibitory concentration (IC50) was found to be 1800 nM on TEAD2 and 860 nM on TEAD3.

In the case of `COc1nc(F)c(NS(C)(=O)=O)cc1/C=C/C1CCC(F)(F)CC1` [Compound 39, N-[5-[(E)-2-(4,4-difluorocyclohexyl)vinyl]-2-fluoro-6-methoxy-3-pyridyl]methanesulfonamide], the IC50 worked out at 550 nM on TEAD2 and 970 nM on TEAD3.

As to `COc1ccc(C(=O)NC(C)C)cc1/C=C/C1CCCCC1` [Compound 29], the half-inhibitory concentration (IC50) on TEAD2 was determined as 1000 nM; on TEAD3 it was 1100 nM.

In the case of `COc1ccc(NS(=O)(=O)C2CC2)cc1/C=C/C1CCCCC1` [Compound 28, N-[3-[(E)-2-cyclohexylvinyl]-4-methoxy-phenyl]cyclopropanesulfonamide], the values for the half-inhibitory concentration (IC50) on TEAD2 and on TEAD3 were 890 nM and 1000 nM, respectively.

`COc1ccc(NS(C)(=O)=O)cc1/C=C/C1CCCCC1` [Compound 27, N-[3-[(E)-2-cyclohexylvinyl]-4-methoxy-phenyl]methanesulfonamide]: the results for the 50% inhibitory concentration (IC50) at TEAD2 and at TEAD3 were 1000 nM and 1200 nM, respectively.

As for `COc1ccc(NS(C)(=O)=O)cc1/C=C/C1CCC(C)(C)CC1` [Compound 5, N-[3-[(E)-2-(4,4-dimethylcyclohexyl)vinyl]-4-methoxy-phenyl]methanesulfonamide], the IC50 amounted to 600 nM on TEAD2 and 770 nM at TEAD3.

With `COc1cnc(NS(C)(=O)=O)cc1/C=C/C1CCC(C(F)(F)F)CC1` (stereo not shown) [Compound 48, (E)-N-(5-methoxy-4-(2-(4-(trifluoromethyl)cyclohexyl)vinyl)pyridin-2-yl)methanesulfonamide], the values for the IC50 at TEAD2 and on TEAD3 were 1100 nM and 1600 nM, respectively.

With `COc1nc(F)c(NS(C)(=O)=O)cc1/C=C/CC1CCCC1` [Compound 40, N-[5-[(E)-3-cyclopentylprop-1-enyl]-2-fluoro-6-methoxy-3-pyridyl]methanesulfonamide], the IC50 stood at 640 nM at TEAD2 and 650 nM on TEAD3.

Regarding `COc1ccc(NS(=O)(=O)C2CC2)cc1-c1ccc(C(C)C)cc1` [Compound 25, N-[3-(4-isopropylphenyl)-4-methoxy-phenyl]cyclopropanesulfonamide], the IC50 at TEAD2 was found to be 380 nM; on TEAD3, 1200 nM.

In the case of `COc1ccc(NS(C)(=O)=O)cc1/C=C/C1CCC(F)(F)CC1` [Compound 2, N-[3-[(E)-2-(4,4-difluorocyclohexyl)vinyl]-4-methoxy-phenyl]methanesulfonamide], the IC50 at TEAD2 came out at 1000 nM; at TEAD3, 1500 nM.

With `COc1cc(F)c(NS(=O)(=O)C2CC2)cc1-c1ccc(C(C)C)cc1` [Compound 11, N-[2-fluoro-5-(4-isopropylphenyl)-4-methoxy-phenyl]cyclopropanesulfonamide], the half-maximal inhibitory concentration (IC50) on TEAD2 was 560 nM; at TEAD3, 630 nM.

`COc1ncc(NS(C)(=O)=O)cc1/C=C/C1CCC(F)(F)CC1` [Compound 14, N-[5-[(E)-2-(4,4-difluorocyclohexyl)vinyl]-6-methoxy-3-pyridyl]methanesulfonamide]: the figures for the half-maximal inhibitory concentration (IC50) on TEAD2 and at TEAD3 were 380 nM and 430 nM, respectively.

Regarding `CC[C@H](CO)NC(=O)c1cc(/C=C/C2CC3(CC3)C2)c(OC)cn1` [Compound 44, (E)-N-(1-hydroxybutan-2-yl)-5-methoxy-4-(2-(spiro[2.3]hexan-5-yl)vinyl)picolinamide], the IC50 at TEAD2 worked out at 830 nM; at TEAD3, 700 nM.

Consider `COc1ccc(C(=O)NC(C)CCO)cc1/C=C/c1ccc(Cl)cc1` (single isomer, unassigned) [Compound 51, 3-[(E)-2-(4-chlorophenyl)vinyl]-N-(3-hydroxy-1-methyl-propyl)-4-methoxy-benzamide], for which the IC50 at TEAD2 came to 960 nM; on TEAD3, 2000 nM.

`COc1cnc(NS(C)(=O)=O)cc1/C=C/C1(F)CCC(F)(F)CC1` [Compound 20, N-[5-methoxy-4-[(E)-2-(1,4,4-trifluorocyclohexyl)vinyl]-2-pyridyl]methanesulfonamide]: the 50% inhibitory concentration (IC50) at TEAD2 is 2000 nM; at TEAD3, 760 nM.

As to `Cc1cn(Cc2ccc(Cl)cc2)c2cc(NS(C)(=O)=O)ccc12` [Compound 22, N-[1-[(4-chlorophenyl)methyl]-3-methyl-indol-6-yl]methanesulfonamide], the IC50 on TEAD2 stood at 930 nM; at TEAD3, 1300 nM.

Turning to `COc1ccc(NS(C)(=O)=O)cc1[C@H]1C[C@H](c2cccc(F)c2)C1` (single isomer, unassigned) [Compound 8A], the results for the 50% inhibitory concentration (IC50) on TEAD2 and at TEAD3 were 740 nM and 1400 nM, respectively.

On to `COc1ccc(NS(C)(=O)=O)cc1/C=C/C1CCCC1` [Compound 3, N-[3-[(E)-2-cyclopentylvinyl]-4-methoxy-phenyl]methanesulfonamide], for which the half-maximal inhibitory concentration (IC50) on TEAD2 amounted to 580 nM; on TEAD3 it was 1800 nM.

`CC[C@H](CO)NC(=O)c1cc(/C=C/[C@H]2CC[C@H](C(F)(F)F)CC2)c(OC)cn1` [Compound 42, (E)-N-(1-hydroxybutan-2-yl)-5-methoxy-4-(2-(4-(trifluoromethyl)cyclohexyl)vinyl) picolinamide]: the IC50 at TEAD2 was determined as 530 nM; on TEAD3, 780 nM.

With `Cc1cn(Cc2ccc(Cl)cc2)c2cc(NS(=O)(=O)C3CC3)ccc12` [Compound 23, N-[1-[(4-chlorophenyl)methyl]-3-methyl-indol-6-yl]cyclopropanesulfonamide], the 50% inhibitory concentration (IC50) at TEAD2 worked out at 1200 nM; at TEAD3, 830 nM.

`COc1ncc(C(=O)NC(C)CCO)cc1/C=C/c1ccc(Cl)cc1` (single isomer, unassigned) [Compound 19, 5-[(E)-2-(4-chlorophenyl)vinyl]-N-(3-hydroxy-1-methyl-propyl)-6-methoxy-pyridine-3-carboxamide]: the IC50 was 1900 nM on TEAD2 and 1600 nM on TEAD3.

For `COc1ccc(NS(C)(=O)=O)cc1/C=C/C1CCC(C)CC1` (single isomer, unassigned) [Compound 6A, (E)-N-(4-Methoxy-3-(2-(4-methylcyclohexyl)vinyl)phenyl) methanesulfonamide], the IC50 was determined as 960 nM on TEAD2 and 1700 nM on TEAD3.

For `COc1ncc(NS(C)(=O)=O)cc1/C=C/CC(C)C` [Compound 15, N-[6-methoxy-5-[(E)-4-methylpent-1-enyl]-3-pyridyl]methanesulfonamide], the IC50 on TEAD2 was 1200 nM; on TEAD3, 2000 nM.

Consider `C=CS(=O)(=O)Nc1ccc(OC)c(/C=C/c2ccc(Cl)cc2)c1` [Compound 34, N-[3-[(E)-2-(4-chlorophenyl)vinyl]-4-methoxy-phenyl]ethenesulfonamide], for which the IC50 turned out to be 960 nM on TEAD2 and 1200 nM at TEAD3.

For `CCOc1ncc(NS(C)(=O)=O)cc1/C=C/C1CCC(F)(F)CC1` [Compound 18, N-[5-[(E)-2-(4,4-difluorocyclohexyl)vinyl]-6-ethoxy-3-pyridyl]methanesulfonamide], the results for the IC50 at TEAD2 and at TEAD3 were 1900 nM and 1200 nM, respectively.

In the case of `COc1ccc(C(=O)NC(C)C)cc1/C=C/Cc1ccccc1` [Compound 30, N-isopropyl-4-methoxy-3-[(E)-3-phenylprop-1-enyl]benzamide], the concentration for half-maximal inhibition (IC50) at TEAD2 was found to be 720 nM; at TEAD3 it was 620 nM.

The values are drawn from patent US20210188775A1, “CARBOXAMIDE AND SULFONAMIDE DERIVATIVES USEFUL AS TEAD MODULATORS” (Genentech, Inc., priority 2018, published 2021).
